We go through seven compounds from ChEMBL document CHEMBL1127703, “Structural requirements for respiratory inhibition by rotenoids; is an intact B/C ring system essential?” (Bioorg Med Chem Lett, 1994).

A short description of the assay: Tested for the ability to block NADH dehydrogenase in a preparation of submitochondrial particles obtained from blow fly flight muscle. The assay is classed as tissue-based, Calliphoridae, Muscle tissue.
Take `C=C(C)[C@H]1Cc2cc(C(=O)n3c(C)nc4ccccc43)ccc2O1`: the “-Log IC50” value is on record as 7.82.

Regarding `C=C(C)[C@H]1Cc2c(ccc(Cn3c(C)nc4ccccc43)c2OC)O1`, the “-Log IC50” value worked out at 6.82.

Consider `COc1ccc(CC2NCCc3cc4c(cc32)C[C@H](C(C)CSc2ccccc2)O4)cc1OC` (some centres not stated), for which the “-Log IC50” value is 7.9.

As to `C=C(C)[C@H]1Cc2cc3c(cc2O1)CCNC3Cc1ccc(OC)c(OC)c1` (some centres not stated), the “-Log IC50” value amounted to 6.76.

For `C=C(C)[C@H]1Cc2c(ccc(C(=O)n3c(C)nc4ccccc43)c2OC)O1`, the “-Log IC50” value was 6.6.

`C=C(C)[C@H]1Cc2cc(Cn3c(C)nc4ccccc43)ccc2O1`: the “-Log IC50” value turned out to be 7.3.

On to `C=C(C)[C@H]1Cc2c(ccc3c2O[C@@H]2COc4cc(OC)c(OC)cc4[C@@H]2C3=O)O1` [ROTENONE], for which the “-Log IC50” value turned out to be 8.7.
